The values that follow come from US9149038B2, “4-amino-6-(heterocyclic)picolinates and 6-amino-2-(heterocyclic)pyrimidine-4-carboxylates and their use as herbicides” (Dow AgroSciences LLC, priority 2013, dated 2015).

The subject of the assay is Key Broadleaf and Grass Weed as well as Crop Species. Briefly: Post-Emergent Test I: postemergent herbicidal activity, visual phytotoxicity rating 10 days after treatment (Table 5). Format: in vivo. The settings on record: for pest or weed control at 3960 g/ha / pest or weed control at 4000 g/ha: post-emergence, 240 h, 10 days after application; for Visual Growth Reduction (%) 10 Days After Application ECHCG: barnyardgrass (Echinochloa crus-galli). The procedure: Herbicidal evaluations were made visually on a scale of 0 to 100 where 0 represents no activity and 100 represents complete plant death. Post-Emergent Test I: Seeds of test species were obtained from commercial suppliers and planted into a 5″-round pot containing soil-less media mix (Metro-Mix 360®, Sun Gro Horticulture). Postemergence treatments were planted 8-12 days (d) prior to application and cultured in a greenhouse equipped with supplemental light sources to provide a 16 h photoperiod at 24-29° C. All pots were surface irrigated. Approximately 10 milligrams (mg) of each compound were dissolved in 1.3 mL acetone-DMSO (97:3, volume per volume (v/v)) and diluted with 4.1 mL water-isopropanol-crop oil concentrate (78:20:2, v/v/v) containing 0.02% Triton X-155. Treatments were serial diluted with the above formulation solvent to provide 1.85, 0.926, 0.462 and 0.231 milligrams per milliliter (mg/mL) of test compound delivered in 2.7 mL/pot (roughly equivalent to 4.0, 2.0, 1.0, and 0.5 kg/ha, respectively). Formulated compounds were applied using a DeVilbiss® compressed air sprayer at 2-4 pounds per square inch (psi). Following treatment, pots were returned to the greenhouse for the duration of the experiment. All pots were sub-irrigated as needed to provide optimum growing conditions. All pots were fertilized one time per week by subirrigating with Peters Peat-Lite Special® fertilizer (20-10-20). Phytotoxicity ratings were obtained 10 days after treatment postemergence applications. All evaluations were made visually on a scale of 0 to 100 where 0 represents no activity and 100 represents complete plant death and are presented as indicated in Table 4.

[1] abbreviates: giant foxtail (Setaria faberi), 3.96 kg ai/ha, read-out: Visual Growth Reduction (%) 10 Days After Application SETFA.
Where [2] appears, read: ivyleaf morningglory (Ipomoea hederecea), 3.96 kg ai/ha, read-out: Visual Growth Reduction (%) 10 Days After Application IPOHE.
[3] abbreviates: sunflower (Helianthus annuus), 3.96 kg ai/ha, read-out: Visual Growth Reduction (%) 10 Days After Application HELAN.
Where [4] appears, read: wild oats (Avena fatua), 3.96 kg ai/ha, read-out: Visual Growth Reduction (%) 10 Days After Application AVEFA.
The mark [5] stands for this setting: giant foxtail (Setaria faberi), 4 kg ai/ha, read-out: Visual Growth Reduction (%) 10 Days After Application SETFA.
Setting [6] is: ivyleaf morningglory (Ipomoea hederecea), 4 kg ai/ha, read-out: Visual Growth Reduction (%) 10 Days After Application IPOHE.
Setting [7] is: sunflower (Helianthus annuus), 4 kg ai/ha, read-out: Visual Growth Reduction (%) 10 Days After Application HELAN.
The mark [8] stands for this setting: wild oats (Avena fatua), 4 kg ai/ha, read-out: Visual Growth Reduction (%) 10 Days After Application AVEFA.

Read-outs that look alike come from different tables or passages of the source.

Consider `Nc1c(F)c(-c2cccc3c2OC(F)(F)O3)nc(C(=O)O)c1Cl` [Compound 74], for which the pest or weed control at 3960 g/ha runs as follows: under setting [1], 0 to 29%; under setting [2], 60 to 74%; under setting [3], 95 to 100%; under setting [4], 0 to 29%.
`Nc1c(F)c(-c2cccc3c2OCO3)nc(C(=O)O)c1Cl` [Compound 72, 4-Amino-6-(benzo[d][1,3]dioxol-4-yl)-3-chloro-5-fluoropicolinic acid]: the “Visual Growth Reduction (%) 10 Days After Application ECHCG” value (4 kg ai/ha) is listed as “G (0-29)”. Besides, the pest or weed control at 4000 g/ha under setting [5] is 0 to 29%, the pest or weed control at 4000 g/ha under setting [6] lay in the range of 0 to 29%, the pest or weed control at 4000 g/ha under setting [7] lay within 95 to 100% and the pest or weed control at 4000 g/ha under setting [8] lay within 0 to 29%.
With `COC(=O)c1nc(-c2cccc3c2OC(F)(F)O3)c(F)c(N)c1Cl` [Compound 73], the “Visual Growth Reduction (%) 10 Days After Application ECHCG” value (3.96 kg ai/ha) was “G (0-29)”. Also, the pest or weed control at 3960 g/ha was in the range of 0 to 29% under setting [1], 75 to 84% under setting [2], 95 to 100% under setting [3] and 0 to 29% under setting [4].
On to `Nc1c(Cl)c(C(=O)O)nc(-c2cc3c(cc2F)OC(F)(F)O3)c1Cl` [Compound 3], for which, under “4 kg ai/ha”, the “Visual Growth Reduction (%) 10 Days After Application ECHCG” value was “C (75-84)”. In addition, the pest or weed control at 4000 g/ha is, setting by setting: under setting [5], 75 to 84%; under setting [6], 75 to 84%; under setting [7], 75 to 84%; under setting [8], 75 to 84%.
